Results reported in patent US10028961B2, “Therapeutically active compounds and their methods of use” (AGIOS PHARMACEUTICALS, INC., priority 2013, dated 2018).

What was measured:
[1] = target: IDH1-R132H homodimer enzyme (Homo sapiens (Human), UniProt O75874, R132H); assay: In vitro assay IDH1-R132H homodimer, NADPH depletion assay with NADPH/NADP preincubation; assay type: biochemical; settings: 5 μM NADPH and 37.5 μM NADP
Procedure, shortened: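 Compounds were added from DMSO at 50× final concentration, and the mutant enzyme was incubated 60 min at room temperature after starting with a substrate mix holding NADPH and 5 mM alpha-ketoglutarate. Residual cofactor, read by fluorescence after excess diaphorase and resazurin, reflects enzyme turnover.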

[2] = target: IDH2 R140Q (Homo sapiens (Human), UniProt P48735, R140Q); assay: In vitro assay for IDH2m R140Q inhibitors, cofactor depletion assay; assay type: biochemical; settings: IDH2 R140Q enzyme
Procedure, shortened: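 Remaining cofactor measured fluorimetrically: diaphorase/resazurin Stop Mix […], halting the reaction. Before that, mutant enzyme and compound sat 1 h at RT, then substrate mix (4 μM NADPH, 1.6 mM α-KG) was added for 16 h at RT.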

[3] = system: HT1080 cells; assay: Cellular assay for IDH1m R132C inhibitors, 2-HG by LC-MS in HT1080 cells; assay type: cell-based; settings: Homo sapiens, HT-1080
Procedure, shortened: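 2-HG levels were measured by LC-MS in culture medium sampled 48 h after compound addition (0.2% DMSO) to HT1080 cells seeded overnight at 5000 cells/well. A CellTiter-Glo luminescence read at 72 h gave cell viability.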

[4] = system: U87MG pLVX-IDH2 R140Q-neo cells; assay: U87MG pLVX-IDH2 R140Q-neo cell based assay, 2-HG by LC-MS; settings: Homo sapiens, U-87 MG

Sequence of IDH2 R140Q (P48735 40-452 R140Q): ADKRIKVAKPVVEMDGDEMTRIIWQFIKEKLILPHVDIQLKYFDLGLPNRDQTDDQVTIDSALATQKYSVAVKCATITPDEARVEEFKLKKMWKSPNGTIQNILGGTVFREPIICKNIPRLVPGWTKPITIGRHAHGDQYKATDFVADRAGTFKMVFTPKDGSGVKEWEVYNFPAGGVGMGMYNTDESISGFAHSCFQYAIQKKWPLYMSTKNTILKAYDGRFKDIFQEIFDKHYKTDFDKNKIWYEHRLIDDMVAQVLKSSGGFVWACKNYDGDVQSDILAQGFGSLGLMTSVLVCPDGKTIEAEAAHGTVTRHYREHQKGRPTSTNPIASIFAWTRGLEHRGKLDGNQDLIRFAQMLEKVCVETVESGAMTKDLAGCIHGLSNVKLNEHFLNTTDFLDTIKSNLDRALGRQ
Sequence of IDH1-R132H homodimer enzyme (O75874 whole entry R132H): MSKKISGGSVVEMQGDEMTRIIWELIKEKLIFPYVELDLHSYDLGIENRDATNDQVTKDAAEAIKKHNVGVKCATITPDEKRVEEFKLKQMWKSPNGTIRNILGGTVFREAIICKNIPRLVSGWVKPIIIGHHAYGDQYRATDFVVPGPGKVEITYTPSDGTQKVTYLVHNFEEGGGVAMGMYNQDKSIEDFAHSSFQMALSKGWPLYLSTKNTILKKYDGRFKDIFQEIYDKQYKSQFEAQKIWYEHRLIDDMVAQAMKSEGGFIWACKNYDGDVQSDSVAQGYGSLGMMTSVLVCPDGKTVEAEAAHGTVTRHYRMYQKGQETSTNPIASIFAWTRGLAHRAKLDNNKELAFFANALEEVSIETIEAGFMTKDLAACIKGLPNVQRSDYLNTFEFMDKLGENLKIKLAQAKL

| SMILES | IC50 [1] [nM] | IC50 [2] [nM] | IC50 [3] [nM] | IC50 [4] [nM] |
| --- | --- | --- | --- | --- |
| CC(F)(F)c1cccc(-c2nc(NC3CCC(F)(F)C3)nc(NC3CCC(F)(F)C3)n2)n1 (centres unmarked) [Compound 105] | < 50 | < 50 | < 50 | < 50 |
| FC1(F)CCC(Nc2nc(Nc3ccnc(C(F)(F)F)c3)nc(-c3cccc(Cl)n3)n2)C1 (centres unmarked) [Compound 115] | < 50 | < 50 | 100 to 1000 | < 50 |
| C[C@@H](Nc1nc(N[C@H](C)C2CC2)nc(-n2ccc(C(F)(F)F)n2)n1)C1CC1 [Compound 121] | 50 to 100 | < 50 | < 50 | < 50 |
| Fc1cc(F)cc(Nc2nc(NC3CCC(F)(F)C3)nc(-c3cccc(C(F)(F)F)n3)n2)c1 (centres unmarked) [Compound 123] | < 50 | < 50 | 100 to 1000 | < 50 |
| N#Cc1cc(F)cc(Nc2nc(NC3CCC(F)(F)C3)nc(-c3cccc(C(F)(F)F)n3)n2)c1 (centres unmarked) [Compound 124] | < 50 | < 50 | – | < 50 |
| FC1(F)CC(Nc2nc(NC3CC(F)(F)C3)nc(-n3ccc(C(F)(F)F)n3)n2)C1 [Compound 126] | 50 to 100 | < 50 | – | < 50 |
| FC1(F)CC(Nc2nc(NC3CC(F)(F)C3)nc(-c3nc(C(F)(F)F)cs3)n2)C1 [Compound 128] | < 50 | < 50 | < 50 | < 50 |
| Clc1cccc(-c2nc(NC(C3CC3)C3CC3)nc(NC(C3CC3)C3CC3)n2)n1 [Compound 131] | 50 to 100 | < 50 | – | < 50 |
| CC(Nc1nc(Nc2ccnc(C3(C#N)CC3)c2)nc(-c2cccc(Cl)n2)n1)C(F)(F)F (centres unmarked) [Compound 134] | < 50 | < 50 | < 50 | < 50 |
| FC(F)c1cccc(-c2nc(NC3CC(F)(F)C3)nc(NC3CC(F)(F)C3)n2)n1 [Compound 145] | < 50 | < 50 | 100 to 1000 | < 50 |
| FC1(F)CCC(Nc2nc(NC3CCC(F)(F)C3)nc(-n3ccc(C(F)(F)F)n3)n2)C1 (centres unmarked) [Compound 146] | < 50 | < 50 | – | < 50 |
| FC1(F)CCC(Nc2nc(NC3CCC(F)(F)CC3)nc(-c3cncc(Cl)n3)n2)CC1 [Compound 147] | 50 to 100 | < 50 | 100 to 1000 | < 50 |
| FC1(F)CC(Nc2nc(NC3CC(F)(F)C3)nc(-c3cccc(C(F)(F)F)n3)n2)C1 [Compound 149] | < 50 | < 50 | 50 to 100 | < 50 |
| N#CC1(c2cc(Nc3nc(NC4CCC(F)(F)C4)nc(-c4cccc(C(F)(F)F)n4)n3)ccn2)CC1 (centres unmarked) [Compound 151] | < 50 | < 50 | – | < 50 |
| FC1(F)CCC(Nc2nc(NC3Cc4ccccc4C3)nc(-c3cccc(C(F)(F)F)n3)n2)C1 (centres unmarked) [Compound 152] | < 50 | < 50 | – | < 50 |
| CC(C)(C)Nc1nc(Nc2ccnc(C#N)c2)nc(-c2cccc(C(F)(F)F)n2)n1 [Compound 162] | < 50 | < 50 | – | < 50 |
| N#Cc1cc(F)cc(Nc2nc(NC3CCC(F)(F)CC3)nc(-c3cccc(C(F)(F)F)n3)n2)c1 [Compound 164] | 50 to 100 | < 50 | – | < 50 |
| FC1(F)CC(Nc2nc(NC3CC(F)(F)C3)nc(-c3csc(C(F)(F)F)n3)n2)C1 [Compound 170] | 100 to 1000 | < 50 | – | < 50 |
| FC1(F)CCC(Nc2nc(NC3CCC(F)(F)CC3)nc(-n3ccc(C(F)(F)F)n3)n2)CC1 [Compound 176] | 100 to 1000 | < 50 | 100 to 1000 | < 50 |
| N#Cc1cc(Nc2nc(NC3CCC(F)(F)C3)nc(-c3cccc(C(F)(F)F)n3)n2)ccn1 (centres unmarked) [Compound 181] | < 50 | < 50 | 100 to 1000 | < 50 |
| FC1(F)CCC(Nc2nc(NC3Cc4ccc(Cl)cc4C3)nc(-c3cccc(C(F)(F)F)n3)n2)C1 (centres unmarked) [Compound 182] | 100 to 1000 | < 50 | – | < 50 |
